Each structure is given as a SMILES string. pIC50: −log10 of the molar value.

In this assay the target is Rho-associated protein kinase 2 (Homo sapiens, UniProt O75116). The assay is described as follows: Inhibition of ROCK2 (unknown origin) using FITC-AHA-AKRRRLSSLRA-OH substrate and ATP.
Chain of Rho-associated protein kinase 2 (O75116 whole entry): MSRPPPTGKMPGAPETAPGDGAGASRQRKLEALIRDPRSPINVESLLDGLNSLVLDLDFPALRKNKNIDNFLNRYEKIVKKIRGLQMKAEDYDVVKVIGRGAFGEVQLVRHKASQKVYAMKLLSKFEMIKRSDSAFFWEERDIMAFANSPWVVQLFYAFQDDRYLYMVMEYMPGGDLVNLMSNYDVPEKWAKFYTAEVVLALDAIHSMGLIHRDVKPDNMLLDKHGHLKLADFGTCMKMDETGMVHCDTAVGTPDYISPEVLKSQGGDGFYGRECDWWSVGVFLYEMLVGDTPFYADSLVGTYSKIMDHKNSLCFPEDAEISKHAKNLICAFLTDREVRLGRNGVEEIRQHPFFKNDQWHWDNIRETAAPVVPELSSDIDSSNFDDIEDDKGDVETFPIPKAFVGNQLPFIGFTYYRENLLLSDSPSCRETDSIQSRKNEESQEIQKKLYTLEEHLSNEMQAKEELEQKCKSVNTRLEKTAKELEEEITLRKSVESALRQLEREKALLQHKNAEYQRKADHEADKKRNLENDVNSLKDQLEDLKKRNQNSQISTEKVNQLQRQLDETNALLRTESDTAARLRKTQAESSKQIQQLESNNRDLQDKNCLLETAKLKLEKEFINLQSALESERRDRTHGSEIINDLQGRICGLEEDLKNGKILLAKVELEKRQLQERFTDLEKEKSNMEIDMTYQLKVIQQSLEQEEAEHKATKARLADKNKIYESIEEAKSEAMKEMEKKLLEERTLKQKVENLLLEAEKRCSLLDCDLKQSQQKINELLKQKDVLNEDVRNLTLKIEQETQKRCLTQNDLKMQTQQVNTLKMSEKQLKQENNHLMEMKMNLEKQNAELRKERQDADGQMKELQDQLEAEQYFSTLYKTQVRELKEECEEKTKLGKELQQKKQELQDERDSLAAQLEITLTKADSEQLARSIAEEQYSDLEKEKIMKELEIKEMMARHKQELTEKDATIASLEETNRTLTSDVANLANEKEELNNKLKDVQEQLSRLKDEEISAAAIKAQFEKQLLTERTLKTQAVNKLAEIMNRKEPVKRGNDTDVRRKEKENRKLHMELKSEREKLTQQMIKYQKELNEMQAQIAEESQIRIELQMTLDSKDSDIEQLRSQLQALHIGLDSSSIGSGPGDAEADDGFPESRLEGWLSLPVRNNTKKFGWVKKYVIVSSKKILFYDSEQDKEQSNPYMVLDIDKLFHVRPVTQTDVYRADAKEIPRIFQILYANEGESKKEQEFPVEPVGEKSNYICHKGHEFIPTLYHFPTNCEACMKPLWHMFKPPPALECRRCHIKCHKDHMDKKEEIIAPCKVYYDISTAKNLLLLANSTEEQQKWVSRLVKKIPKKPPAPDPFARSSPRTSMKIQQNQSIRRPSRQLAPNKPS
One may read the pIC50 as the IC50 on a negative log10 scale, so that one unit is a factor of ten. Higher therefore signals a low IC50. In turn, `COc1cnc(NC2CC3(C2)CC(Oc2ncccc2C(N)=O)C3)c2cc(Cl)ccc12` (stereo not given) gave a pIC50 of 7.82.

For the compound `N#Cc1cnc(NC2CC3(C2)CC(Oc2ncccc2C(N)=O)C3)nc1` (stereo not given), the pIC50 is 5.82.

Take `NC(=O)c1cccnc1OC1CC2(CC(Nc3nc4c(Cl)cccc4s3)C2)C1` (stereo not given): the pIC50 was 7.12.

Compound `COc1ccc2ncnc(NC3CC4(C3)CC(Oc3ncccc3C(N)=O)C4)c2c1` (stereo not given) gave a pIC50 of 7.21.

Turning to `COc1ccc2c(NC3CC4(C3)CC(Oc3ncccc3C(N)=O)C4)nccc2c1` (stereo not given), the pIC50 is 7.77.
